Measured values reported in patent US5399487A, “6-peptidylamino-1-naphthalenesulfonamides useful as fluorogenic proteolytic enzyme substrates” (Haematologic Technologies, Inc., priority 1993, dated 1995).

Tests used:
Assay type in all cases: biochemical
[1] = target: T1, thrombin (IIa) (Homo sapiens, UniProt P00734); test: Fluorogenic enzyme assay (Example 5); set-up: key to Kinetic constants, IIa (symbol b): slow substrate hydrolysis, no kinetic constants calculated
T1 construct: 0.5 nM human thrombin (IIa)
Experimental: (§1) Enzyme assays (except factor VIIa assays, see below) were conducted in 20 mM Tris, 150 mM NaCl, pH 7.4 (TBS) at room temperature (22° C.). The final volume for all reaction mixtures was 2.0 ml. Fluorogenic substrates were dissolved in DMSO to a stock concentration of 10 mM. The 10 mM stock solution was diluted in TBS to the final working concentration prior to all assays. Enzyme was added to mixtures containing buffer components and substrate and the initial rate of substrate hydrolysis was measured as the change in fluorescent intensity over time, corresponding to the generation of the particular 6-amino-1-naphthalenesulfonamide fluorophore from the provided substrate. Quantitation of substrate hydrolysis was accomplished by establishing a standard curve from the appropriate fluorescent moiety. Fluorescence was monitored (continuously or discontinuously) using a Perkin Elmer fluorescence spectrophotometer, model MPF-44A, equipped with a standard chart recorder. The fluorophore was detected using monochrometers set at an excitation wavelength of 352 nm and an emission wavelength of 470 nm. Light scattering artifacts were minimized using a 399 nm cut off filter in the emission light beam.
(§2) The kinetic constants of substrate hydrolysis were determined using the non-linear least squares regression analysis program ENZFITTER (Cambridge, UK). This program was used to iteratively fit initial rates of substrate hydrolysis to the Michaelis-Menten equation and the kinetic constants of substrate hydrolysis (Km) and (kcat) were calculated.

[2] = target: factor Xa (Homo sapiens, UniProt P00742); test: Fluorogenic enzyme assay (Example 5); set-up: key to Kinetic constants, Xa (symbol b): slow substrate hydrolysis, no kinetic constants calculated; settings: for TIME TO 10% HYDROLYSIS (HOURS), Xa / hydrolysis, Xa (symbol d): substrate 1 μM; for hydrolysis, Xa (symbol d): at 100 hours
Experimental: as §1, §2

[3] = target: activated protein C (APC) (Homo sapiens, UniProt P04070); test: Fluorogenic enzyme assay (Example 5); settings: for TIME TO 10% HYDROLYSIS (HOURS), APC: substrate 1 μM; for Km / kcat /Km, APC / kcat, APC: Table 9
Experimental: as §1, §2

[4] = target: plasmin (Plm) (Homo sapiens, UniProt P00747); test: Fluorogenic enzyme assay (Example 5); settings: substrate 1 μM
Experimental: as §1, §2

[5] = target: tissue plasminogen activator (t-PA) (Homo sapiens, UniProt P00750); test: Fluorogenic enzyme assay (Example 5); settings: 100 nM enzyme, substrate 1 μM; for hydrolysis, t-PA (symbol d): at 100 hours
Experimental: as §1, §2

[6] = target: urokinase (u-PA) (Homo sapiens, UniProt P00749); test: Fluorogenic enzyme assay (Example 5); settings: 100 nM enzyme, substrate 1 μM; for hydrolysis, u-PA (symbol d): at 100 hours
Experimental: as §1, §2

[7] = target: T2, factor VIIa (Homo sapiens, UniProt P08709); test: Fluorogenic enzyme assay, relative hydrolysis rates (Table 8); settings: at 100 hours; 10 nM enzyme, substrate 1 μM
T2 construct: directly measure the enzymatic activity of factor VIIa in the presence and absence of tissue factor and phospholipid
T2 sequence (P08709 213-466 limits assumed): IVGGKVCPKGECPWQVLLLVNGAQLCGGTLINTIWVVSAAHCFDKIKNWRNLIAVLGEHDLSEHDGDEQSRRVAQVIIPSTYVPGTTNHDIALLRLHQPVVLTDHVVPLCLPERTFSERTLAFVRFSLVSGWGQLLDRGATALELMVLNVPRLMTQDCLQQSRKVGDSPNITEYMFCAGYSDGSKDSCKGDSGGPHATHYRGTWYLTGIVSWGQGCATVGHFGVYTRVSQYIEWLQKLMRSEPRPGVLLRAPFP
T2 sequence (P08709 61-212 limits assumed): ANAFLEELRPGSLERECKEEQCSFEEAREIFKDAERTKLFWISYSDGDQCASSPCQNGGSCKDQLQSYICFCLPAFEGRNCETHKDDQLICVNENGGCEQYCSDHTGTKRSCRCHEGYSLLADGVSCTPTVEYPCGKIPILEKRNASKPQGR
Experimental: as §1
Factor VII assays were conducted in 20 mM HEPES, 150 mM NaCl, 5 mM CaCl2, pH 7.4 (HBS) at 37° C. The final volume for all reactions was 1.6 ml. 6-(Mes-D-Leu-Gly-Arg)amino-1-(N,N-diethyl)naphthalenesulfonamide was dissolved in DMSO to a stock concentration of 10 mM. This 10 mM stock solution of was diluted in HBS to final working concentration prior to all assays. For reactions involving tissue factor (TF) and phospholipid vesicles, recombinant human tissue factor was solubilized in either 0.04% n-dodecyl octaethylene glycol (C12 E8) or 0.8% octyl glucoside. The TF/n-dodecyl octaethylene glycol was then relipidated into PCPS or PC vesicles by a 30 minute incubation step as described by Lawson & Mann, J. Biol. Chem. 266: 11317-11327 (1991). TF/octyl glucoside was relipidated into PC or PCPS vesicles by a thirty minute incubation step followed by exhaustive dialysis. The final concentration of tissue factor used in the studies described here ranged from 2 to 50 nM depending on the nature of the experiment.
Fifteen minutes prior to the start of all reactions factor VIIa was added to the reaction system. This incubation period was followed by the addition of substrate (1 μM to 400 μM) to the mixture to start the reaction. In experiments designed to determine kinetic constants of substrate hydrolysis, 50 nM rVIIa was used when no tissue factor was present in the reaction system, while 0.5 nM rVIIa was used when tissue factor was present in the reaction system. The rate of substrate hydrolysis was measured by change in fluorescence over time, which corresponded with the generation of the 6-amino-1-(N,N-diethyl)naphthalenesulfonamide from the provided substrate. The kinetic constants of 6-(Mes-D-Leu-Gly-Arg)amino-1-(N,N-diethyl)naphthalenesulfonamide hydrolysis as a function of factor VIIa/tissue factor complex assembly are shown in Table 10.

[8] = target: factor IXa (Homo sapiens, UniProt P00740); test: Fluorogenic enzyme assay (Example 5); set-up: key to Kinetic constants, IXa (symbol b): slow substrate hydrolysis, no kinetic constants calculated; settings: for hydrolysis, IXa (symbol d): at 100 hours
Experimental: as §1, §2

Chain of tissue plasminogen activator (t-PA) (P00750 36-562, species assumed): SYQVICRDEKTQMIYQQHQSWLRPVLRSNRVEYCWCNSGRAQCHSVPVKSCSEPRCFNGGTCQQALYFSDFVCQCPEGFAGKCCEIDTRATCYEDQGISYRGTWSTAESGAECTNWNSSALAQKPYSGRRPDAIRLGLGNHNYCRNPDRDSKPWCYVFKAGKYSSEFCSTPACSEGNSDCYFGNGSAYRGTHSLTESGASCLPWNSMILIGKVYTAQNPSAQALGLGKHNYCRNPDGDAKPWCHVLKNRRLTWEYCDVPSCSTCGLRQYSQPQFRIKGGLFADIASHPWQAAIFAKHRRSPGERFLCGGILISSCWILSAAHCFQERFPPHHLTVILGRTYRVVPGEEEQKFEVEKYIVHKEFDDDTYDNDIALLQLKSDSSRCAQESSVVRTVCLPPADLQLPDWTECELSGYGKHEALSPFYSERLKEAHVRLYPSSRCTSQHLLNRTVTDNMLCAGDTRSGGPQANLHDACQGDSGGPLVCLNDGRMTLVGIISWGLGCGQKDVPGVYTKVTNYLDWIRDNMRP
Chain of factor IXa (P00740 227-461 limits assumed): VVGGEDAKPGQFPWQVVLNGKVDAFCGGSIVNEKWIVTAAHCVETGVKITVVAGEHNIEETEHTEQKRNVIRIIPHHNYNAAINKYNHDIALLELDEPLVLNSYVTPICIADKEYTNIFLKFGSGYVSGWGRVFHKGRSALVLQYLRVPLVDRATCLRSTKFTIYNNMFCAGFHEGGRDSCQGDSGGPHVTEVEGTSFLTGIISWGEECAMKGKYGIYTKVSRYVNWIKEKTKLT
Chain of factor IXa (P00740 47-191 limits assumed): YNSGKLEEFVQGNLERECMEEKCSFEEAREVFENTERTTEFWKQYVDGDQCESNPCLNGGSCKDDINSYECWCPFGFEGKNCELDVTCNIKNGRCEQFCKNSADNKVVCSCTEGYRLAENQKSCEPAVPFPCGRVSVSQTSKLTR
Chain of factor Xa (P00742 235-488 limits assumed): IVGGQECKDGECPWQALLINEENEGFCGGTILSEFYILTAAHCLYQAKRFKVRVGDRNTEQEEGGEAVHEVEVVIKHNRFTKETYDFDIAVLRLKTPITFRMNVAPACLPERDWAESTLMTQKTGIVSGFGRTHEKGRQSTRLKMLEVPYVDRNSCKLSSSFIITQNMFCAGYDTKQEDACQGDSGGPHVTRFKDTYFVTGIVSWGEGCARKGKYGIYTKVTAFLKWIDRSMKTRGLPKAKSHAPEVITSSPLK
Chain of factor Xa (P00742 41-179 limits assumed): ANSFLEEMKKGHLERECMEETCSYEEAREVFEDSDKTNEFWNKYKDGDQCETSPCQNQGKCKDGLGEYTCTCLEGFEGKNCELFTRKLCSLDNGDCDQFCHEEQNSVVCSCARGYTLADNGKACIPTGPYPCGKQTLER
Chain of plasmin (Plm) (P00747 581-810 limits assumed, species assumed): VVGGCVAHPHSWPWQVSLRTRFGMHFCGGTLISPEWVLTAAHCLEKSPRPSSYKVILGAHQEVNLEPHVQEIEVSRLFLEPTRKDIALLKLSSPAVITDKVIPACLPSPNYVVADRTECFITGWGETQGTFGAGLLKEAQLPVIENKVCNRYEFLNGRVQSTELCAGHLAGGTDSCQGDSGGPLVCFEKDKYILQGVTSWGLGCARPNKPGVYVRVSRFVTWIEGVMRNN
Chain of plasmin (Plm) (P00747 97-580 limits assumed, species assumed): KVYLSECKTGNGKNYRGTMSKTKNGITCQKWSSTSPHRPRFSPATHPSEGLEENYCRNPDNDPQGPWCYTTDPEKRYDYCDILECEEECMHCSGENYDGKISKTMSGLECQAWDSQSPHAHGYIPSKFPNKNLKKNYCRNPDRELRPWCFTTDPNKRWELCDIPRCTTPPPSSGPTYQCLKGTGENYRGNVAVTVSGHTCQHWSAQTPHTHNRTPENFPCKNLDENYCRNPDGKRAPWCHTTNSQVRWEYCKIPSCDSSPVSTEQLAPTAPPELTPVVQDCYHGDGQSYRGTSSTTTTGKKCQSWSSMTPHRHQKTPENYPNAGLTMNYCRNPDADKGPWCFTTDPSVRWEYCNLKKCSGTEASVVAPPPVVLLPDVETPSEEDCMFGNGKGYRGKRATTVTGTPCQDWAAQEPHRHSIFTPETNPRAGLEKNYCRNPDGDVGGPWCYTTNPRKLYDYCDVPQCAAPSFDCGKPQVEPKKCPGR
Chain of activated protein C (APC) (P04070 212-461 limits assumed): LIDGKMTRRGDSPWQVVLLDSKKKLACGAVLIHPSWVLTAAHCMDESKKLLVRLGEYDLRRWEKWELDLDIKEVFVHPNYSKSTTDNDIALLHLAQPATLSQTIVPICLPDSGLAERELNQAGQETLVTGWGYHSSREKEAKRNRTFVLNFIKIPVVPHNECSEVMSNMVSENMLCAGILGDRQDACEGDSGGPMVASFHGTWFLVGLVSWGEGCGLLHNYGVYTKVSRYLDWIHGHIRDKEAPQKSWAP
Chain of activated protein C (APC) (P04070 43-197 limits assumed): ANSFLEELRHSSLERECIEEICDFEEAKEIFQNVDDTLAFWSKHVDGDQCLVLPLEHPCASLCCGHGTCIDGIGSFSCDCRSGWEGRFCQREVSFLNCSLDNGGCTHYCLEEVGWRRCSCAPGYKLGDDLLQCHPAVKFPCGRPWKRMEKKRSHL

SMILES | TIME TO 10% HYDROLYSIS (HOURS), IIa ([1]; 10 nM enzyme, substrate 1 μM) | TIME TO 10% HYDROLYSIS (HOURS), APC ([3]; 10 nM enzyme) | Km [3] | kcat /Km, APC [3] | kcat, APC [3] | TIME TO 10% HYDROLYSIS (HOURS), Plm ([4]; 100 nM enzyme (footnote b)) | hydrolysis, t-PA (symbol d) [5] | TIME TO 10% HYDROLYSIS (HOURS), u-PA [6] | hydrolysis, VIIa (symbol d) [7] | Kinetic constants, IXa (symbol b) ([8]; Table 9) | hydrolysis, IXa (symbol d) ([8]; 100 nM enzyme, substrate 1 μM) | hydrolysis, Xa (symbol d) ([2]; 10 nM enzyme) | TIME TO 10% HYDROLYSIS (HOURS), APC ([3]; 100 nM enzyme (footnote b)) | hydrolysis, u-PA (symbol d) [6] | Km ([1]; Table 9) | kcat, IIa ([1]; Table 9) | TIME TO 10% HYDROLYSIS (HOURS), Xa ([2]; 10 nM enzyme) | Km ([2]; Table 9) | kcat /Km, Xa ([2]; Table 9) | kcat, Xa ([2]; Table 9) | other results
Br.Br.Br.N=C(N)NCCC[C@H](NC(=O)CNC(=O)CN)C(=O)N[C@@H](CCCNC(=N)N)C(=O)Nc1ccc2c(S(=O)(=O)NC3CCCCC3)cccc2c1 [GGRR-ANSNH(cyclo-C6 H11)] | 93 h | 0.5 h | 267 µM | 11600 M⁻¹ s⁻¹ | 3.1 s⁻¹ | 2.5 h | d (hydrolysis at 100 hours was less than 10%.) | 24 h | d (hydrolysis at 100 hours was less than 10%.) | b | d (hydrolysis at 100 hours was less than 10%.) | – | – | – | – | – | – | – | – | – | Kinetic constants, IIa (symbol b) ([1]; Table 9): b; TIME TO 10% HYDROLYSIS (HOURS), Xa ([2]; 100 nM enzyme (footnote b)): 46 h; Kinetic constants, Xa (symbol b) ([2]; Table 9): b
Br.Br.Br.CN(C)S(=O)(=O)c1cccc2cc(NC(=O)[C@H](CCCNC(=N)N)NC(=O)[C@@H](N)CCCCN)ccc12 [KR-ANSN(CH3)2] | – | – | – | – | – | 8 h | d (hydrolysis at 100 hours was less than 10%.) | – | d (hydrolysis at 100 hours was less than 10%.) | – | d (hydrolysis at 100 hours was less than 10%.) | d (hydrolysis at 100 hours was less than 10%.) | 8 h | d (hydrolysis at 100 hours was less than 10%.) | – | – | – | – | – | – | hydrolysis, IIa (symbol d) ([1]; at 100 hours, 10 nM enzyme, substrate 1 μM): d (hydrolysis at 100 hours was less than 10%.)
CN(C)S(=O)(=O)c1cccc2cc(NC(=O)[C@H](CCCNC(=N)N)NC(=O)[C@@H](N)CCCCNC(=O)OCc3ccccc3)ccc12.Cl.Cl [N^ω -AZ)KJR-ANSN(CH3)2] | 26 h | – | – | – | – | 1.5 h | d (hydrolysis at 100 hours was less than 10%.) | – | d (hydrolysis at 100 hours was less than 10%.) | – | d (hydrolysis at 100 hours was less than 10%.) | d (hydrolysis at 100 hours was less than 10%.) | 5.5 h | d (hydrolysis at 100 hours was less than 10%.) | – | – | – | – | – | – | –
CCCNS(=O)(=O)c1cccc2cc(NC(=O)[C@H](CCCNC(=N)N)NC(=O)[C@H](Cc3ccccc3)NC(=O)[C@@H]3CCCN3)ccc12.Cl.Cl [PFR-ANSNHC3 H7] | 5 h | 0.25 h | 240 µM | 19600 M⁻¹ s⁻¹ | 4.7 s⁻¹ | – | d (hydrolysis at 100 hours was less than 10%.) | 6 h | d (hydrolysis at 100 hours was less than 10%.) | b | d (hydrolysis at 100 hours was less than 10%.) | – | – | – | 600 µM | 0.36 s⁻¹ | 1.25 h | 667 µM | 2000 M⁻¹ s⁻¹ | 1.33 s⁻¹ | kcat /Km, IIa ([1]; Table 9): 600 M⁻¹ s⁻¹; TIME TO 10% HYDROLYSIS (HOURS), Plm ([4]; 10 nM enzyme): 13 h
CC(C)C[C@@H](NC(=O)OCc1ccccc1)C(=O)N1CCC[C@H]1C(=O)N[C@@H](CCCNC(=N)N)C(=O)Nc1ccc2c(S(=O)(=O)N3CCCCC3)cccc2c1 [ZD-LPR-ANSN(CH2)5] | – | 0.5 h | 246 µM | 28900 M⁻¹ s⁻¹ | 7.1 s⁻¹ | – | – | 1 h | d (hydrolysis at 100 hours was less than 10%.) | – | – | – | – | – | 4.2 µM | 16.1 s⁻¹ | 0.02 h | 26.3 µM | 133000 M⁻¹ s⁻¹ | 3.5 s⁻¹ | TIME TO 10% HYDROLYSIS (HOURS), IIa ([1]; 1 nM enzyme (footnote c), substrate 1 μM): 0.01 h; TIME TO 10% HYDROLYSIS (HOURS), Plm ([4]; 10 nM enzyme): 0.08 h; TIME TO 10% HYDROLYSIS (HOURS), t-PA [5]: 1 h; TIME TO 10% HYDROLYSIS (HOURS), IXa ([8]; 100 nM enzyme, substrate 1 μM): 7 h; Km ([8]; Table 9): 141 µM; kcat, IXa ([8]; Table 9): 0.39 s⁻¹; kcat/Km, IXa ([8]; Table 9): 2750 M⁻¹ s⁻¹
